# Source: paper PMC11997985, “Synthesis and In Vitro Profiling of Psilocin Derivatives: Improved Stability and Synthetic Properties” (Journal of Medicinal Chemistry, 2025)
# Values joined by “and” are separate entries in the source; they are usually repeats but may differ in a detail not shown here. Equal entries are not always repeated. “Also recorded” adds a separate entry of the source. Marks after values point to notes of the source that are not given here.
# Assays:
# [1] = Photolytic degradation of psilocin salts; conditions: for % psilocin remaining: after 14 days
# [2] = Thermal degradation of psilocin salts at 60 °C; conditions: for % psilocin remaining: after 6 days (143 h)
# [3] = Forced degradation of psilocin salts, acid (1.0 M HCl); conditions: for half-life at 2 mg/mL freebase psilocin: 1.0 M HCl (acid forced degradation); for % psilocin remaining: after 24 h compared with first measuring point at 1 h, LCMS; for color: visual inspection after 24 h
# [4] = Forced degradation of psilocin salts, base (0.10 M NaOH); conditions: for half-life at 24 h, 2 mg/mL freebase psilocin: 0.10 M NaOH (base forced degradation)
# [5] = Forced degradation of psilocin salts, oxidative (0.30% H2O2)
# [6] = General observations of psilocin salts in solid form in −18 °C freezer; conditions: for stability (solid form): over 3 weeks in −18 °C freezer, visual inspection and LCMS; for hygroscopic: visual inspection
# [7] = Metabolic stability in human microsomes; type: in vitro ADME; conditions: for Metabolic stability in human microsomes: 37 °C, 0.5 mg/mL protein, 1 μM compound, 1 mM NADPH; for Comment on microsome assay: Table S3
# [8] = Solubility, screen method, phosphate buffer pH 7.4, 1% DMSO; type: physicochemical; conditions: phosphate buffer with 1% DMSO; 100 mM phosphate buffer pH 7.4, 1% DMSO; assay range 0.1 to 100 μM
# [9] = Peak area in microsome suspension compared with compounds in solution; type: in vitro ADME, human; conditions: peak area 15 seconds after addition of NADPH versus same amount (125 nM) in H2O/EtOH
# Protocol: (§1) were taken at three timepoints, and the degradation was compared to determine if it was dependent on NADPH. Compound 4k […]
# (§2) without the addition of NADPH. […]
# (§3) microsomes that need to be activated by a co -factor.
# (§4) Table S5 Percent of peak area found in microsome suspension 15 seconds after the addition of NADPH in comparison with the same amount dissolved in H2O/EtOH
# (§5) No. Area at 0.25 min. in Area in solution % found in microsomes/NADPH (125 nM) microsome
# (§6) Comparison with compounds in solution. A comparison was made between the peak area of the compounds in solution with that obtained in the microsome suspension directly after the addition of NADPH (about 0.25 minutes) (Table S5). Before the addition of NADPH, the compounds are equilibrated in the microsome suspension for approximately five minutes. All compounds were prepared in solution by diluting a portion of the DMSO solutions with H2O/EtOH (75:25) to 125 nM (the final concentration of compounds for analysis in the microsome assay).
# (§7) For the compounds where no results from the microsome assay could be reported due to low peak area (4d, 4e, 4f & 5), less than one percent of the expected peak area as compared with the area in solution was detected. […]
# (§8) degrade rapidly before the addition of the co-factor after five minutes in incubation. For compounds 4g, 4h, 4i & 4j, which were […]
# (§9) higher relative peak areas were found. […]
# (§10) without NADPH was only found at 15% of the area seen in solution in the microsome suspension.
# [10] = Chemical stability in 1.0 M NaHCO3 and 1.0 M HCl
# [11] = Stability in simulated stomach acid (0.10 M HCl); conditions: 0.10 M HCl (simulated stomach acid)
# [12] = Co-factor experiment: microsome suspension with and without NADPH; type: in vitro ADME, human; conditions: for Co-factor experiment: degradation with and without addition of NADPH compared
# Protocol: Therefore, additional experiments comparing stability with and without the addition of NADPH cofactor and a very short incubation period were performed (Tables S4 and S5). […] Due to the rapid observed degradation in microsomes, we decided to investigate the stability of five compounds in human plasma, aiming for a broad range of stabilities (Table 2, Table S6). It should be noted that esterase-labile compounds are notoriously difficult to study in microsomal stability studies.[36]
# Table S3 Evaluation of metabolic stability in human microsomes
# No. Metabolic stability Comment
# 4k <10/<10 Low retention in chromatography
# 8 <10/<10 Low retention in chromatography.
# Table S4 Results from the modified microsome assay where degradation with and without the addition of NADPH was compared […]
# 4d Very low peak area for the first time point,
# 4e Very low peak area for the first time point,
# 4f Very low peak area for the first time point,
# 5 Very low peak area for the first time point,
# 8 No degradation without co -factor […]
# metabolism by the microsomes (consisting mainly of cytochrome P450 enzymes) or if it was due to other factors, the compounds (with the exception of 4k) were incubated in the microsome suspension both with and without the addition of NADPH. Samples […]
# as §1, §2, §3, §4, §5, §6, §7, §8, §9, §10
# porcine liver esterase = assay: Stability in FaSSIF supplemented with esterase; conditions: for % prodrug remaining, measured after 1 min: after 1 min at 20 IU/mL; for predicted half-life: at 270 IU/mL; for predicted abs.: calculated remaining prodrug available for GI absorption, predicted level after 5 min at 270 IU/mL (% remaining prodrug); for half-life at 0.292 mM: pig, FaSSIF supplemented with porcine liver esterase (20 IU/mL)
# [13] = 0.30% H2O2 (oxidative forced degradation), half-life, 0.30% H2O2
# [14] = 0.30% H2O2 (oxidative forced degradation), half-life, 0.30% H2O2, RT
Compound,"half-life at 336 h, 2 mg/mL freebase psilocin [1]",% psilocin remaining ([1]; 12900 lx),% psilocin remaining [2],half-life at 2 mg/mL freebase psilocin [3],% psilocin remaining ([3]; 1.0 M HCl),"color ([3]; 1.0 M HCl, RT)","half-life at 24 h, 2 mg/mL freebase psilocin [4]","% psilocin remaining ([4]; 0.10 M NaOH, after 24 h)","% psilocin remaining ([5]; 0.30% H2O2, after 24 h)",stability (solid form) [6],hygroscopic [6],Metabolic stability in human microsomes [7],half-life at 5 mM [11],Comment on microsome assay [7],Co-factor experiment [12],"half-life at 24 h, 5 mM ([10]; 1.0 M NaHCO3)",other results
CN(C)CCc1c[nH]c2cccc(O)c12.O=C(O)C(F)(F)F [Compound 9f],167 h,22%,0%,> 167 h,99%,clear,15 h,0%,78%,degrades within 3 days,highly hygroscopic and yes,–,–,–,–,–,"half-life at 2 mg/mL freebase psilocin [2]: < 48 h; half-life at 2 mg/mL freebase psilocin [5, 13]: > 24 h; half-life at 2 mg/mL freebase psilocin [5, 14]: 33.3 h"
CN(C)CCc1c[nH]c2cccc(OC(=O)N3CCCCC3)c12.O=C(O)/C=C/C(=O)O [Compound 4k],–,–,–,–,–,–,–,–,–,–,–,<10/<10^b μL/min/mg protein and <10 μL/min/mg protein,> 167 h,–,–,–,solubility [8]: > 90 µM; % found in microsome suspension [9]: 79%; half-life at 5 mM ([10]; 1.0 M HCl): > 167 h; half-life at 5 mM ([10]; 1.0 M NaHCO3): > 167 h
CN(C)CCc1c[nH]c2cccc(OB(O)O)c12.O=C(O)/C=C/C(=O)O [Compound 5],–,–,–,–,–,–,–,–,–,–,–,>200^a μL/min/mg protein and >200 μL/min/mg protein,< 0.0833 h,Rapid degradation,"Very low peak area for the first time point, instability suspected",–,half-life at 5 mM ([10]; 1.0 M HCl): < 0.0833 h; half-life at 5 mM ([10]; 1.0 M NaHCO3): < 0.0833 h
CN(C)CCc1c[nH]c2cccc(O)c12.O=C(O)c1ccccc1 [Compound 9c],150 h,0%,0%,> 167 h,100%,clear,8.33 h,0%,94%,stable enough to store as a solid in the freezer for an extended period; also recorded: no change,no,–,–,–,–,–,"time to complete breakdown ([1]; 12900 lx, RT): ≤ 1 week; half-life at 2 mg/mL freebase psilocin [2]: < 48 h; half-life at 144 h, 2 mg/mL freebase psilocin [2]: 33.3 h; half-life at 2 mg/mL freebase psilocin [5, 14]: > 167 h"
CCCCCCCCCCC(=O)Oc1cccc2[nH]cc(CCN(C)C)c12.O=C(O)/C=C/C(=O)O [Compound 4j],–,–,–,–,–,–,–,–,–,–,–,>200^a μL/min/mg protein and >200 μL/min/mg protein,> 167 h,Rapid degradation,Degradation without co-factor,16.7 h,"microsomal CLint ([12]; human, human microsome suspension, both with and without the addition of NADPH, read-out: intrinsic clearance): > 200 µL/min/mg; % found in microsome suspension [9]: 45%; half-life at 24 h, 5 mM ([10]; 1.0 M HCl): 21.7 h"
CC(C)COC(=O)Oc1cccc2[nH]cc(CCN(C)C)c12.O=CO [Compound 4d],–,–,–,–,–,–,–,–,–,–,–,>200^a μL/min/mg protein and >200 μL/min/mg protein,> 167 h,Rapid degradation,"Very low peak area for the first time point, instability suspected",36.7 h,"solubility [8]: > 90 µM; degradation rate among prodrugs (porcine liver esterase; FaSSIF, 20 IU/mL esterase): fastest degradation; % prodrug remaining, measured after 1 min (porcine liver esterase): 7%; predicted half-life (porcine liver esterase): 1.2 s; predicted abs. (porcine liver esterase): 7.0 × 10^–77; half-life at 0.292 mM (porcine liver esterase): 15.6 ± 1.2 s; half-life at 5 mM ([10]; 1.0 M HCl): > 167 h"
CN(C)CCc1c[nH]c2cccc(OC(=O)OCc3ccccc3)c12.O=C(O)/C=C/C(=O)O.O=CO [Compound 4f],–,–,–,–,–,–,–,–,–,–,–,>200^a μL/min/mg protein and >200 μL/min/mg protein,> 167 h,Rapid degradation,"Very low peak area for the first time point, instability suspected",11.7 h,"% prodrug remaining, measured after 1 min (porcine liver esterase): 21%; predicted half-life (porcine liver esterase): 1.8 s; predicted abs. (porcine liver esterase): 6.6 × 10^–45; half-life at 0.292 mM (porcine liver esterase): 26.4 ± 2.4 s; half-life at 24 h, 5 mM ([10]; 1.0 M HCl): 100 h"
CN(C)CCc1c[nH]c2cccc(O)c12.O=P(O)(O)O [Compound 9e],333 h,33%,0%,> 167 h,94%,clear,5 h,0%,83%,darkens after 1 week,no,–,–,–,–,–,"half-life at 144 h, 2 mg/mL freebase psilocin [2]: 66.7 h; half-life at 2 mg/mL freebase psilocin [5, 13]: > 24 h; half-life at 24 h, 2 mg/mL freebase psilocin [5, 14]: 13.3 h"
COC(=O)Oc1cccc2[nH]cc(CCN(C)C)c12.O=C(O)/C=C/C(=O)O [Compound 4e],–,–,–,–,–,–,–,–,–,–,–,>200^a μL/min/mg protein and >200 μL/min/mg protein,> 167 h,Rapid degradation,"Very low peak area for the first time point, instability suspected",16.7 h,"% prodrug remaining, measured after 1 min (porcine liver esterase): 60%; % prodrug remaining, no esterase 30 min (porcine liver esterase; after 30 min with no esterase): 100%; predicted half-life (porcine liver esterase): 6 s; predicted abs. (porcine liver esterase): 4.1 × 10^–13; half-life at 0.292 mM (porcine liver esterase): 84.6 ± 19.2 s; half-life at 24 h, 5 mM ([10]; 1.0 M HCl): 150 h"
CN(C)CCc1c[nH]c2cccc(O)c12.Cl [Compound 9a],333 h,51%,0%,> 167 h,100%,clear,8.33 h,0%,100%,degrading during storage after only 3 days; also recorded: not very stable,highly hygroscopic and yes,–,–,–,–,–,"half-life at 2 mg/mL freebase psilocin [2]: < 48 h; half-life at 144 h, 2 mg/mL freebase psilocin [2]: 50 h; half-life at 2 mg/mL freebase psilocin [5, 14]: > 167 h"
CN(C)CCc1c[nH]c2cccc(O)c12.OB(O)O [Compound 9b],–,0%,0%,–,93%,clear,–,0%,0%,stable enough to store as a solid in the freezer for an extended period; also recorded: no change,no,–,–,–,–,–,"half-life ([1]; 12900 lx, RT): <1000 ^b min; time to complete breakdown ([1]; 12900 lx, RT): ≤ 1 week; color (24 h) ([1]; 12900 lx, RT, water:acetonitrile 1:1): black; control sample stored in darkness ([1]; in air at RT for a week, dissolved salt): entirely degraded; half-life [2]: <11.7 h; time to complete degradation [2]: ≤ 24 h; color (24 h) ([2]; water:acetonitrile 1:1): black; half-life ([3]; 1.0 M HCl, RT): >10,000 min; half-life ([4]; 0.10 M NaOH, RT): 6.67 h; color ([4]; 0.10 M NaOH, after 24 h, RT): black; time to complete degradation ([5]; 0.30% H2O2): ≤ 3 h; half-life ([5]; 0.30% H2O2, RT): <1 h; color ([5]; 0.30% H2O2, after 24 h, RT): brown"
